Source: patent publication US20250136606A1, “MODULATORS OF TRPML, THEIR COMPOSITIONS AND METHODS OF USE” (Caraway Therapeutics, Inc., priority 2021, published 2025)
Read-outs that look alike come from different tables or passages of the source.

Legend:
Format in all cases: cell-based
TRPML2 = molecular target: T1, TRPML2 (Homo sapiens, UniProt Q8IZK6); test: Fluorescent TRPML2 assay (performed as for TRPML1, substituting the TRPML2 subtype)
T1 construct: expressed in transfected cells
T1 sequence (Q8IZK6 1-566): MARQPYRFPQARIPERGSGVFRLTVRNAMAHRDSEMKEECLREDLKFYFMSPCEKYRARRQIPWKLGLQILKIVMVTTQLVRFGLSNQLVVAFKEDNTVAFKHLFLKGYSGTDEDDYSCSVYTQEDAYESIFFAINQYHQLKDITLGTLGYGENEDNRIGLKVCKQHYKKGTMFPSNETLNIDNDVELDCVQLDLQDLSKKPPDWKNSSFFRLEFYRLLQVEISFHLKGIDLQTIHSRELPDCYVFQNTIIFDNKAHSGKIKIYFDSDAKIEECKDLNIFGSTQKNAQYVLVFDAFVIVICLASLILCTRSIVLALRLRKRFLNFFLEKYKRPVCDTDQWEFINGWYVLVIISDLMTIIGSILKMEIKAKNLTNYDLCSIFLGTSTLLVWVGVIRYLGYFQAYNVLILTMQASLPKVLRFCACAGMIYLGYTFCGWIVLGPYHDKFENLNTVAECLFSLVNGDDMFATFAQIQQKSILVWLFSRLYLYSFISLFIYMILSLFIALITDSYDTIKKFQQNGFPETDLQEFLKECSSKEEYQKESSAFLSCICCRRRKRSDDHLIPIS
Summary of the method: (§1)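 Agonist activity is scored as percent of plate controls from Fluo4 fluorescence after dye-loaded, doxycycline-induced HEK-293 Trex cells meet compound in high-calcium (10 mM) Ringer's. Compounds run in half-log dilutions from 20 micromolar final, in triplicate.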

TRPML3 = molecular target: T2, TRPML3 (Homo sapiens, UniProt Q8TDD5); test: Fluorescent TRPML3 assay (performed as for TRPML1, substituting the TRPML3 subtype)
T2 construct: expressed in transfected cells
T2 sequence (Q8TDD5 1-553): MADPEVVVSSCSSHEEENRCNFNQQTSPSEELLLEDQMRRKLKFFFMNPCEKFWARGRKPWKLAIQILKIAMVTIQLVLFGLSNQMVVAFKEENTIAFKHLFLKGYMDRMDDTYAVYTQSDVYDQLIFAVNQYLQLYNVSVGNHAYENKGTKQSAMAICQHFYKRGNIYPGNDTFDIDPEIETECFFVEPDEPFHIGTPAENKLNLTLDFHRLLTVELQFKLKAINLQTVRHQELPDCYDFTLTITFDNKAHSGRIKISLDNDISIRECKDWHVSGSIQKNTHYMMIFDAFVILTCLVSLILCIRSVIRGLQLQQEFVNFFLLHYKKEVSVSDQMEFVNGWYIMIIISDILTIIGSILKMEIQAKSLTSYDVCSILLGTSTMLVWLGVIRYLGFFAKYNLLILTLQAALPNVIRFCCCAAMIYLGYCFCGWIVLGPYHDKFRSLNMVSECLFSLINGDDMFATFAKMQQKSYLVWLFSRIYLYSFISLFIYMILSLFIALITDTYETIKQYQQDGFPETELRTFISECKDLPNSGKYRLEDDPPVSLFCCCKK
Summary of the method: as §1

TRPML1 = TRPML1 (Homo sapiens, UniProt Q9GZU1); test: Fluorescent TRPML1 assay (Fluo4-AM calcium fluorescence in doxycycline-induced HEK-293 Trex cells)
Summary of the method: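 EC50 values come from non-linear regression of percent activity, normalized to on-plate positive and negative controls, with fluorescence read at 480 nm excitation and 540 nm emission. Fluo4-AM-loaded (1 µM) doxycycline-induced HEK-293 Trex cells expressing mutated human TRPML1 were exposed in 10 mM calcium Ringer's to 6 nM–20 µM compound, in triplicate.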

Sequence of TRPML1 (Q9GZU1 whole entry L15A/L16A/L577A/L578A, form open): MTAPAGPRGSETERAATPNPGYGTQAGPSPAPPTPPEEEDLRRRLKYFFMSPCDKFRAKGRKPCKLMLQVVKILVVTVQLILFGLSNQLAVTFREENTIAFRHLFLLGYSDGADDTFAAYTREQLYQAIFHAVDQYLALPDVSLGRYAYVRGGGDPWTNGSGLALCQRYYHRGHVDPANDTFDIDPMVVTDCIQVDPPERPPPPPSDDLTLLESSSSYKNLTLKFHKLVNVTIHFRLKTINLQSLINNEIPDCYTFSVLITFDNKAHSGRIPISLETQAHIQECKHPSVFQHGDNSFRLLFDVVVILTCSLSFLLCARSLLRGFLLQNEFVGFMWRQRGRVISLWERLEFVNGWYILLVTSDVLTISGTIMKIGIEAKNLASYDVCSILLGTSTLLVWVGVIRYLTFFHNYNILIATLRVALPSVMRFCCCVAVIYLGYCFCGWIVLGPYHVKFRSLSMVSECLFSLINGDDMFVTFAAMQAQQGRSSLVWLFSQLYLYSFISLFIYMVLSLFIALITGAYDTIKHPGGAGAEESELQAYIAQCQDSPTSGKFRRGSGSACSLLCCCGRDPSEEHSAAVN

With `C[C@@H]1CN(c2ncnc3c2c(C2CC2)cn3-c2cccnc2)[C@@H](C)CN1C(=O)OC(C)(C)C` [Compound 168, tert-butyl (2R,5S)-4-(5-cyclopropyl-7-(pyridin-3-yl)-7H-pyrrolo[2,3-d]pyrimidin-4-yl)-2,5-dimethylpiperazine-1-carboxylate] the EC50 (TRPML2; fluorescent calcium assay) was > 2000 nM, the EC50 (TRPML3; fluorescent calcium assay) was 500 to 2000 nM and the EC50 (TRPML1; fluorescent calcium assay) was 500 to 2000 nM.
`Cc1cn(-c2cc(C(F)(F)F)ccn2)c2ncnc(N3CCN(C(=O)OC(C)(C)C)[C@H](C)C3)c12` [Compound 679, tert-butyl (R)-2-methyl-4-(5-methyl-7-(4-(trifluoromethyl)pyridin-2-yl)-7H-pyrrolo[2,3-d]pyrimidin-4-yl)piperazine-1-carboxylatee] was tested, and the EC50 (TRPML2) was < 100 nM, the EC50 (TRPML3) was < 100 nM and the EC50 (TRPML1) was < 100 nM.
`CCOC(=O)N1C[C@H](C)N(c2ncnc3c2c(-c2ccccc2F)cn3-c2ccccn2)C[C@H]1C` [Compound 137, ethyl (2R,5S)-4-(5-(2-fluorophenyl)-7-(pyridin-2-yl)-7H-pyrrolo[2,3-d]pyrimidin-4-yl)-2,5-dimethylpiperazine-1-carboxylate] showed an EC50 (TRPML2; fluorescent calcium assay) of 500 to 2000 nM, an EC50 (TRPML3; fluorescent calcium assay) of 100 to 500 nM and an EC50 (TRPML1; fluorescent calcium assay) of 100 to 500 nM.
`C[C@@H]1CN(c2ncnc3c2c(-c2ccccc2F)cn3-c2cc(F)ccn2)[C@@H](C)CN1C(=O)OC1(C)CC1` [Compound 653, 1-methylcyclopropyl (2R,5S)-4-(5-(2-fluorophenyl)-7-(4-fluoropyridin-2-yl)-7H-pyrrolo[2,3-d]pyrimidin-4-yl)-2,5-dimethylpiperazine-1-carboxylate] was tested, and the EC50 (TRPML2) was < 100 nM, the EC50 (TRPML3) was < 100 nM and the EC50 (TRPML1) was < 100 nM.
With `C[C@H]1CN(C(=O)OC(C)(C)C)CCN1c1ncnc2c1c(-c1ccncc1F)cn2-c1cc(C#N)ccn1` [Compound 355, tert-butyl (S)-4-(7-(4-cyanopyridin-2-yl)-5-(3-fluoropyridin-4-yl)-7H-pyrrolo[2,3-d]pyrimidin-4-yl)-3-methylpiperazine-1-carboxylate] the EC50 (TRPML2; fluorescent calcium assay) was < 100 nM, the EC50 (TRPML3; fluorescent calcium assay) was < 100 nM and the EC50 (TRPML1; fluorescent calcium assay) was < 100 nM.
`Cc1nccnc1-c1cn(-c2cc(F)cc(F)c2)c2ncnc(N3CCN(C(=O)OC(C)(C)C(F)(F)F)C[C@@H]3C)c12` [Compound 247, 1,1,1-trifluoro-2-methylpropan-2-yl (S)-4-(7-(3,5-difluorophenyl)-5-(3-methylpyrazin-2-yl)-7H-pyrrolo[2,3-d]pyrimidin-4-yl)-3-methylpiperazine-1-carboxylate] gave an EC50 (TRPML2; fluorescent calcium assay) of 500 to 2000 nM, an EC50 (TRPML3; fluorescent calcium assay) of 100 to 500 nM and an EC50 (TRPML1; fluorescent calcium assay) of 500 to 2000 nM.
`Cc1cncc(-n2cc(C3CC3)c3c(N4C[C@@H](C)N(C(=O)OC(C)(C)C)C[C@@H]4C)ncnc32)c1` [Compound 165, tert-butyl (2R,5S)-4-(5-cyclopropyl-7-(5-methylpyridin-3-yl)-7H-pyrrolo[2,3-d]pyrimidin-4-yl)-2,5-dimethylpiperazine-1-carboxylate] gave an EC50 (TRPML2; fluorescent calcium assay) of 500 to 2000 nM, an EC50 (TRPML3; fluorescent calcium assay) of 100 to 500 nM and an EC50 (TRPML1; fluorescent calcium assay) of 100 to 500 nM.
For `C[C@@H]1CN(c2ncnc3c2c(C(F)(F)F)cn3C2CCCC(C#N)C2)[C@@H](C)CN1C(=O)OC(C)(C)C` (stereo partly drawn) [Compound 629, tert-butyl (2R,5S)-4-(7-(3-cyanocyclohexyl)-5-(trifluoromethyl)-7H-pyrrolo[2,3-d]pyrimidin-4-yl)-2,5-dimethylpiperazine-1-carboxylate], the EC50 (TRPML2) was > 2000 nM, the EC50 (TRPML3) was 100 to 500 nM and the EC50 (TRPML1) was 500 to 2000 nM.
`CCc1cn(-c2cc(C#N)ccn2)c2ncnc(N3C[C@@H](C)N(C(=O)OC(C)(C)C)C[C@@H]3C)c12` [Compound 479, tert-butyl (2R,5S)-4-(7-(4-cyanopyridin-2-yl)-5-ethyl-7H-pyrrolo[2,3-d]pyrimidin-4-yl)-2,5-dimethylpiperazine-1-carboxylate] was tested, and the EC50 (TRPML2; fluorescent calcium assay) was < 100 nM, the EC50 (TRPML3; fluorescent calcium assay) was < 100 nM and the EC50 (TRPML1; fluorescent calcium assay) was < 100 nM.
In the case of `C[C@@H]1CN(c2ncnc3c2c(C2CC2)cn3-c2ccc(Cl)c(F)c2)CCN1C(=O)OC(C)(C)C` [Compound 110, tert-butyl (R)-4-(7-(4-chloro-3-fluorophenyl)-5-cyclopropyl-7H-pyrrolo[2,3-d]pyrimidin-4-yl)-2-methylpiperazine-1-carboxylate], the EC50 (TRPML2; fluorescent calcium assay) is reported as < 100 nM, the EC50 (TRPML3; fluorescent calcium assay) is reported as < 100 nM and the EC50 (TRPML1; fluorescent calcium assay) is reported as < 100 nM.
With `C[C@H]1CN(C(=O)OC(C)(C)C)CCN1c1ncnc2c1c(N1CCCC1)cn2C1CCCCC1` [Compound 334, tert-butyl (S)-4-(7-cyclohexyl-5-(pyrrolidin-1-yl)-7H-pyrrolo[2,3-d]pyrimidin-4-yl)-3-methylpiperazine-1-carboxylate] the EC50 (TRPML2; fluorescent calcium assay) was 100 to 500 nM, the EC50 (TRPML3; fluorescent calcium assay) was < 100 nM and the EC50 (TRPML1; fluorescent calcium assay) was < 100 nM.
With `Cc1cn(-c2cc(C(F)(F)F)ccn2)c2ncnc(N3CCN(C(=O)OC(C)(C)C)C[C@@H]3C)c12` [Compound 682, tert-butyl (S)-3-methyl-4-(5-methyl-7-(4-(trifluoromethyl)pyridin-2-yl)-7H-pyrrolo[2,3-d]pyrimidin-4-yl)piperazine-1-carboxylate] the EC50 (TRPML2) was < 100 nM, the EC50 (TRPML3) was < 100 nM and the EC50 (TRPML1) was < 100 nM.
In the case of `C[C@H]1CN(C(=O)OC(C)(C)C)CCN1c1ncnc2c1c(C1CC1)cn2-c1ccc(F)cc1` [Compound 128, tert-butyl (S)-4-(5-cyclopropyl-7-(4-fluorophenyl)-7H-pyrrolo[2,3-d]pyrimidin-4-yl)-3-methylpiperazine-1-carboxylate], the EC50 (TRPML2; fluorescent calcium assay) is reported as 100 to 500 nM, the EC50 (TRPML3; fluorescent calcium assay) is reported as < 100 nM and the EC50 (TRPML1; fluorescent calcium assay) is reported as < 100 nM.
In the case of `C[C@@H]1CN(c2ncnc3c2c(-c2cccnc2)cn3-c2cc(F)cc(F)c2)CCN1C(=O)OC(C)(C)C` [Compound 214, tert-butyl (R)-4-(7-(3,5-difluorophenyl)-5-(pyridin-3-yl)-7H-pyrrolo[2,3-d]pyrimidin-4-yl)-2-methylpiperazine-1-carboxylate], the EC50 (TRPML2; fluorescent calcium assay) is reported as 500 to 2000 nM, the EC50 (TRPML3; fluorescent calcium assay) is reported as 100 to 500 nM and the EC50 (TRPML1; fluorescent calcium assay) is reported as 100 to 500 nM.
`C[C@H]1CN(C(=O)OC(C)(C)C)CCN1c1nccc2c1c(N1CCC1)cn2-c1cccc(F)c1` [Compound 637, tert-butyl (S)-4-(3-(azetidin-1-yl)-1-(3-fluorophenyl)-1H-pyrrolo[3,2-c]pyridin-4-yl)-3-methylpiperazine-1-carboxylate] was tested, and the EC50 (TRPML2) was 100 to 500 nM, the EC50 (TRPML3) was < 100 nM and the EC50 (TRPML1) was < 100 nM.
With `C[C@H]1CN(C(=O)OC(C)(C)C)CCN1c1nccc2c1c(-c1ccccc1F)cn2-c1cc(C#N)ccn1` [Compound 449, tert-butyl (S)-4-(1-(4-cyanopyridin-2-yl)-3-(2-fluorophenyl)-1H-pyrrolo[3,2-c]pyridin-4-yl)-3-methylpiperazine-1-carboxylate] the EC50 (TRPML2; fluorescent calcium assay) was 100 to 500 nM, the EC50 (TRPML3; fluorescent calcium assay) was < 100 nM and the EC50 (TRPML1; fluorescent calcium assay) was < 100 nM.
For `C[C@@H]1CN(c2ncnc3c2c(C2CC2)cn3-c2cccc(F)c2)[C@@H](C)CN1C(=O)OC1(C)CC1` [Compound 658, 1-methylcyclopropyl (2R,5S)-4-(5-cyclopropyl-7-(3-fluorophenyl)-7H-pyrrolo[2,3-d]pyrimidin-4-yl)-2,5-dimethylpiperazine-1-carboxylate], the EC50 (TRPML2) was 500 to 2000 nM, the EC50 (TRPML3) was 100 to 500 nM and the EC50 (TRPML1) was < 100 nM.
With `C[C@@H]1CN(c2ncnc3c2c(C2CC2)cn3-c2cccc(F)c2)[C@@H](C)CN1C(=O)OC(C)(C)C` [Compound 657, tert-butyl (2R,5S)-4-(5-cyclopropyl-7-(3-fluorophenyl)-7H-pyrrolo[2,3-d]pyrimidin-4-yl)-2,5-dimethylpiperazine-1-carboxylate] the EC50 (TRPML2) was < 100 nM, the EC50 (TRPML3) was < 100 nM and the EC50 (TRPML1) was < 100 nM.
